We go through 66 compounds from PubChem BioAssay AID1417 (Emory University Molecular Libraries Screening Center, 2008).

This assay has as its target Induced myeloid leukemia cell differentiation protein Mcl-1 (Homo sapiens) (UniProt Q07820). The assay is described as follows: Mcl-1 Noxa peptide disruption concentration-response – biochemical, TR-FRET, dose response (AID 1417). The settings on record: Mcl-1/Noxa peptide interaction, cell-free TR-FRET (terbium/rhodamine), 2 h; measured here: absolute IC50. (In general: TR-FRET usually uses a lanthanide donor and a delayed reading to cut background.)

Induced myeloid leukemia cell differentiation protein Mcl-1 (Homo sapiens), sequence (Q07820 whole entry, looked up): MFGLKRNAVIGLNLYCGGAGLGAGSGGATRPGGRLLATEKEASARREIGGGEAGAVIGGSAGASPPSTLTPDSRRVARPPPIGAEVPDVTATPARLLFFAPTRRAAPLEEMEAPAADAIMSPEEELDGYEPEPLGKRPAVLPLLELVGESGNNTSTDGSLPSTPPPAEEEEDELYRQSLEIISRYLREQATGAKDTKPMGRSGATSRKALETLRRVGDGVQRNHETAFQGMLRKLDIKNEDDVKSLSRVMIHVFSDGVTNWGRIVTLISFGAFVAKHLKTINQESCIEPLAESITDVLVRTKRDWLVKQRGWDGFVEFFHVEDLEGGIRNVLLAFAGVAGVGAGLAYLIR

A word on the IC50: it is the midpoint of a concentration-inhibition curve. A lower IC50 goes with higher potency. `CNC(=S)Nc1sc2c(c1C(=O)OC)CCC2` had an IC50 of 1320 nM. `COc1ccc(NC(=O)c2ccccc2N(Cc2ccccc2)S(C)(=O)=O)cc1` came in with a half-inhibitory concentration (IC50) above 54000 nM. As for `O=C(CSc1nnc(-c2ccco2)c(-c2ccco2)n1)c1ccccc1`, the 50% inhibitory concentration (IC50) worked out at 3700 nM. As for `Nc1cc2c(cc1[N+](=O)[O-])OCO2`, the figure is 6980 nM; as for `O=C(Nc1ccc(S(=O)(=O)Nc2nccs2)cc1)c1cc(-c2ccncc2)nc2ccccc12`, below 400 nM. Regarding `COc1ccc(Cc2nnc(NC(=O)Cc3cccs3)s2)cc1`, the half-inhibitory concentration (IC50) was below 400 nM.

`COc1ccc2c3c(cccc13)N(C)N=C2C` yielded a half-inhibitory concentration (IC50) of 931 nM. Regarding `O=C(Nc1ccc(Nc2ccncc2)cc1)c1ccc(Nc2ccnc3ccc([N+](=O)[O-])cc23)cc1[N+](=O)[O-]`, the IC50 was found to be 3110 nM. Compared with the last compound, the IC50 is about 3.3-fold higher.

For `O=C(N/N=C/c1ccc(O)cc1O)c1ccc(CN2C(=O)c3cccc4cccc2c34)cc1`, the half-inhibitory concentration (IC50) is 1290 nM. Compound `CN(C)c1ccc(C(CNC(=O)c2ccccc2Br)c2c[nH]c3ccccc23)cc1` (stereo unspecified) returned an IC50 above 54000 nM. `O=[N+]([O-])c1ccc(/C=N/NC(=S)Nc2ccc(Cl)cc2Cl)s1` registered an IC50 of 1340 nM. This counts as single-digit micromolar. For the compound `CCc1n[nH]c(=S)n1/N=C/c1cc(OC)cc([N+](=O)[O-])c1O`, the half-inhibitory concentration (IC50) was below 400 nM. For `O=C1CC(c2ccc(O)c(O)c2)Oc2c1ccc(O)c2O` (stereo unspecified) the value was 2460 nM.

Consider `O=C1C(=Cc2ccc(Br)o2)C(=O)c2ccccc21`, for which the concentration for half-maximal inhibition (IC50) was below 400 nM. Compound `CC(C)c1ccc(S(=O)(=O)/N=C2/C=CC(=O)c3ccccc32)cc1` yielded an IC50 below 400 nM. In turn, `CSCc1nc2sc(C(=O)Nc3nc(C)cs3)c(C)c2c(=O)[nH]1` had an IC50 of 4100 nM. Take `CN(C)c1ccc(NC(=O)c2cn(-c3ccccc3)nc2-c2cccs2)cc1`: the concentration for half-maximal inhibition (IC50) was above 54000 nM. As for `O=c1oc2ccccc2c(O)c1/C=C1\C=Nc2ccccc21`, the IC50 worked out at 4800 nM. For the compound `O=C1CCCC2=C1C(c1ccco1)Nc1ccc3ccccc3c12` (stereo unspecified), the IC50 worked out at 2220 nM. As to `Cc1ccc(OCCCC(=O)Nc2ccccc2C(F)(F)F)cc1`, the half-inhibitory concentration (IC50) was determined as 43900 nM.

With `Cc1ccc(NC(=O)CN2C(=O)S/C(=C/c3ccc(-c4cc(C(=O)O)ccc4C)o3)C2=O)cc1C`, the IC50 amounted to 2850 nM. Take `COc1cc(C(=O)Nc2ccc(N(C)C)cc2)cc(OC)c1OC`: the IC50 was above 54000 nM. As for `O=c1nc2s/c(=C\c3ccc(-c4ccccc4[N+](=O)[O-])o3)c(=O)n2nc1-c1ccccc1`, the figure is below 400 nM; as for `O=C(O)CSc1cc(C(=O)c2cc(F)ccc2O)cn2c(=O)c3c(-c4ccccc4)csc3nc12`, 2120 nM; as for `O=c1cc(-c2ccc([N+](=O)[O-])cc2)nc2cc(-c3ccc(Cl)cc3)[nH]n12`, 1630 nM. As for `CCc1ccc2nc3sc(C(=O)Nc4nnc(CC)s4)c(N)c3cc2c1`, the figure is above 54000 nM; as for `CCOC(=O)c1c(C)oc2c1c(C(c1ccncc1)N1CCOCC1)c(O)c1ccccc12` (stereo unspecified), below 400 nM. With `CCSc1ncc(/C=N/Nc2ccc([N+](=O)[O-])cc2)n1C`, the half-inhibitory concentration (IC50) is 2120 nM. In turn, `Cc1ccc(C2=NC(=O)/C(=C/c3cc(O)c(O)c(Br)c3)S2)cc1` showed a half-inhibitory concentration (IC50) below 400 nM.

The compound `CN(C)c1ccc(N=c2sc3ccccc3n2C)cc1` registered a 50% inhibitory concentration (IC50) below 400 nM. `COc1ccc(CN2C(=O)NC(=O)/C(=C/c3ccc([N+](=O)[O-])o3)C2=O)cc1` registered a concentration for half-maximal inhibition (IC50) of 2810 nM. As to `COc1cc(/C=C2\SC(=S)NC2=O)ccc1OS(=O)(=O)c1ccccc1`, the IC50 was 1970 nM. The compound `COc1ccc(NC(=S)NNc2ccc(S(=O)(=O)Nc3ccccc3C(=O)O)cc2[N+](=O)[O-])cc1` had a 50% inhibitory concentration (IC50) above 54000 nM. For `CN1CCN(S(=O)(=O)c2ccc(NC(=S)NC(=O)c3ccc(Cl)cc3)cc2)CC1` the value was 3590 nM; for `CN(C)c1ccc(/C=c2\sc3nc(-c4ccccc4)nn3c2=O)cc1`, 8800 nM; for `CCOC(=O)c1c(NC(=O)N/N=C/c2ccc(O)c(OC)c2)sc(C(C)=O)c1C`, 1590 nM. As for `O=C(O)c1cccc2c1NC(c1cccc([N+](=O)[O-])c1)C1CC(Sc3ccccc3[N+](=O)[O-])C(Cl)C21` (stereo unspecified), the IC50 was 2250 nM. As for `C=C(C)C(=O)Nc1cccc(C2=NOC3(C2)C[C@@H](C(N)=O)N(C(=O)C(=C)C)C3)c1` (stereo partly specified), the figure is above 54000 nM; as for `O=C1Oc2ccccc2C(=O)/C1=C/c1ccccc1O`, 3620 nM; as for `Cc1ccccc1C(=O)Nc1nc(-c2cccnc2)cs1`, below 400 nM. `N#C/C(=C\c1ccc(C(=O)O)cc1)c1nc2sc3c(c2c(=O)[nH]1)CCCC3` had a half-inhibitory concentration (IC50) of 2950 nM. In other words, the single-digit micromolar range. The compound `COc1ccc(-c2cnnc(N/N=C/c3ccc(O)cc3)n2)cc1` yielded an IC50 of 8410 nM. As for `CN=c1scc(-c2cccs2)n1/N=C/c1ccc(O)c(O)c1O`, the figure is below 400 nM; as for `Cc1[nH]n(-c2ccc(Br)cc2)c(=O)c1C=Nc1ccc(S(=O)(=O)Nc2nccs2)cc1`, 8080 nM. As for `CCC1=NN2C(=N)/C(=C\c3ccc(OCc4cc(=O)n5nc(CC)sc5n4)c(OC)c3)C(=O)N=C2S1`, the IC50 was determined as 2310 nM. With `Cc1cc(C(=O)COC(=O)c2cc(O)c3ccccc3c2O)c(C)n1CC1CCCO1` (stereo unspecified), the 50% inhibitory concentration (IC50) was below 400 nM.

Take `Cc1cc2nc(-c3ccc(SCC(=O)N4CCN(C(=O)c5ccco5)CC4)nc3)[nH]c2cc1C`: the half-inhibitory concentration (IC50) came to 4160 nM.

`CCOC(=O)c1c(C)oc2c1c(CN1CCN(CCO)CC1)c(O)c1ccccc12` returned an IC50 below 400 nM. In turn, `Cc1ccc(-n2cccc2/C=C2\C(=N)N3N=C(c4ccco4)SC3=NC2=O)cc1` displayed an IC50 of 1530 nM. On to `O=C1/C(=C/c2ccco2)SC(=S)N1c1cccnc1`, for which the IC50 was above 54000 nM. As to `COc1ccc(/C=C/C(=O)NC(=S)Nc2cc([N+](=O)[O-])ccc2O)cc1OC`, the half-inhibitory concentration (IC50) is 1120 nM. This lies in the single-digit micromolar range. As to `COc1ccc(N2CCN(C(=O)c3ccc(CSc4ccccc4)cc3)CC2)cc1`, the IC50 is above 54000 nM.

Turning to `Cc1ccc(/C=C2\C(=O)NC(=S)N(c3ccccc3F)C2=O)s1`, the IC50 is 1860 nM. For `COC(=O)c1ccc(CSc2nc(-c3ccccc3)cs2)o1` the value was above 54000 nM.

In the case of `O=C(O)CCn1cc(C=C2C(=O)NC(=S)NC2=O)c(-c2cc3ccccc3oc2=O)n1`, the IC50 turned out to be 3080 nM.

For the compound `O=C(CN1C(=O)/C(=C2\SC(=S)N(C3CCS(=O)(=O)C3)C2=O)c2ccccc21)Nc1ccc(F)cc1` (stereo unspecified), the concentration for half-maximal inhibition (IC50) was found to be 2070 nM. The IC50 values of the last two compounds are within 1.5-fold of each other. In the case of `O=c1c2ccccc2sn1-c1cc(S(=O)(=O)N2CCOCC2)ccc1N1CCOCC1`, the IC50 is below 400 nM.

Take `CCOC(=O)N1CCN(c2c(NCCCN(CC)Cc3ccccc3)c(=O)c2=O)CC1`: the IC50 amounted to 4060 nM. With `COc1ccc(C(=O)O)cc1NC(=S)NC(=O)c1ccc(-c2ccc(Cl)cc2)o1`, the IC50 is above 54000 nM.

In turn, `Cc1ccc(NC(=S)NNc2ccc([N+](=O)[O-])cc2S(=O)(=O)Nc2ccccc2C(=O)O)cc1C` registered an IC50 of 1270 nM.

In turn, `COc1cc(/C=N/NC(=O)C(Cc2c[nH]c3ccccc23)NC(=O)OCc2ccccc2)cc([N+](=O)[O-])c1O` (stereo unspecified) had a concentration for half-maximal inhibition (IC50) of 4820 nM. `O=C(ONc1ccc(N=NC(=O)c2ccccc2O)cc1)c1ccccc1`: the IC50 was 13000 nM.

For the compound `COc1ccc(-c2csc(NC(=O)CSc3nc(C)nc4sc(C(=O)O)c(C)c34)n2)cc1`, the half-maximal inhibitory concentration (IC50) came to 8230 nM. As for `COc1ccc(-c2cc3nc4ccccc4n3c(N)c2C#N)cc1`, the figure is 4450 nM; as for `O=c1oc2ccccc2c2oc3cc(O)c(O)cc3c12`, below 400 nM; as for `O=C(/C=C/c1ccccc1)c1ccc(NC2=NCCCS2)cc1`, 6520 nM.
